Where a name gives a salt, the structure may show the parent alone.
Assay: collision cross section in nitrogen (drift tube, single-field); higher = larger gas-phase ion size
[1] = ion type: [M-H], ion source: ESI, ion mode: Negative
[2] = ion type: [M+H], ion source: ESI, ion mode: Positive
[3] = ion type: [M+H], ion source: APCI, ion mode: Positive
[4] = ion type: [M+Na], ion source: ESI, ion mode: Positive
[5] = ion type: [M+], ion source: APCI, ion mode: Positive
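Further: chemical standards at 10 µM analysed by drift tube IMS-QTOF MS in about 3.95 torr nitrogen, mean of duplicate injections differing ≤1%, mass error below 10 ppm.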

| SMILES | collision cross section in nitrogen [1] [Å²] | collision cross section in nitrogen [2] [Å²] | collision cross section in nitrogen [3] [Å²] | collision cross section in nitrogen [4] [Å²] | collision cross section in nitrogen [5] [Å²] |
| --- | --- | --- | --- | --- | --- |
| CCCCCCCCC(=O)O [Nonanoic acid] | 146.2 |  |  |  |  |
| O=C1CCCC(=O)C1 [1,3-Cyclohexanedione] | 121.3 | 122.6 |  |  |  |
| c1ccc(CNCc2ccccc2)cc1 [Dibenzylamine] |  | 149.6 | 150.8 |  |  |
| CC1=C(C(=O)Nc2ccccc2)SCCO1 [Carboxin] | 155.8 | 153 | 151.4 | 165.7 |  |
| CCCCCCCCCCCCCCCC(=O)OC [Methyl hexadecanoate] | 173.6 |  |  |  |  |
| CNC(=O)Oc1cccc2c1OC(C)(C)O2 [Bendiocarb] |  |  |  | 157 |  |
| CCOc1ccc(N)cc1 [4-Ethoxyaniline] |  | 139.8 |  |  |  |
| CCOP(=O)(NC(C)C)Oc1ccc(S(C)(=O)=O)c(C)c1 (stereo not drawn) [Fenamiphos sulfone] | 176.7 | 180.3 | 182.4 | 181.5 |  |
| Cc1cc(S(=O)(=O)O)ccc1N=Nc1c(O)ccc2ccccc12 [C.I. Acid Orange 8, monosodium salt] | 187.1 |  |  |  |  |
| Cc1c(C2(c3cc(Br)c(O)c(Br)c3C)c3ccccc3OS2(=O)=O)cc(Br)c(O)c1Br | 217.4 |  |  |  |  |
| CCC(Cc1ccccc1)(C(=O)c1ccc(N2CCOCC2)cc1)N(C)C (stereo not drawn) |  | 195.7 | 195.7 |  |  |
| O=S(=O)(O)CCN1CCN(CCO)CC1 [Sodium 2-[4-(2-hydroxyethyl)piperazin-1-yl]ethanesulfonate] |  | 151.1 |  | 167.9 |  |
| CC(=O)Nc1c(I)c(NC(C)=O)c(I)c(C(=O)O)c1I [Diatrizoic acid] |  | 179.4 |  | 183.6 |  |
| NC(=S)c1c(Cl)cccc1Cl [Chlorthiamid] | 135.9 |  |  |  |  |
| CC(C)(C)CC(C)(C)c1ccc(O)cc1 [4-(1,1,3,3-Tetramethylbutyl)phenol] | 157.1 |  |  |  |  |
| COCC(=O)N(c1c(C)cccc1C)N1CCOC1=O [Oxadixyl] |  |  |  | 167.1 |  |
| CCCCCCCCCCCCCOP(=O)(O)O [Monotridecyl phosphate] | 169.9 |  |  |  |  |
| COC(=O)c1cccnc1 [Methyl nicotinate] |  |  | 126.6 |  |  |
| O=[N+]([O-])c1ccc(O)cc1 [4-Nitrophenol] | 120.6 |  |  |  |  |
| Cc1ccc(Nc2ccc(O)c3c2C(=O)c2ccccc2C3=O)cc1 [D&C Violet 2] |  | 176.7 | 176.9 |  | 174 |
| Cc1cccc2sc3nncn3c12 [2,7,8,9-Tricyclazole] |  | 134 | 136.3 | 153.5 |  |
| Nc1ccc(Oc2ccc(N)cc2)cc1 [4,4'-Oxydianiline] |  | 160.7 | 167.4 |  | 146.6 |
| C[C@H](CCC(=O)NCC(=O)O)[C@H]1CC[C@H]2[C@@H]3[C@H](O)C[C@@H]4C[C@H](O)CC[C@]4(C)[C@H]3C[C@H](O)[C@]12C [Glycocholic acid] | 202.5 |  |  | 201.7 |  |
| CCCCCCCCCC(=O)OCC [Ethyl decanoate] | 154.6 |  |  |  |  |

| SMILES | collision cross section in nitrogen [1] [Å²] | collision cross section in nitrogen [2] [Å²] | collision cross section in nitrogen [3] [Å²] | collision cross section in nitrogen [4] [Å²] | collision cross section in nitrogen [5] [Å²] |
| --- | --- | --- | --- | --- | --- |
| N=C(NCCCCCCNC(=N)NC(=N)Nc1ccc(Cl)cc1)NC(=N)Nc1ccc(Cl)cc1 [Chlorhexidine] |  | 222.4 | 222.9 | 226.5 |  |
| O=C(O)c1ccc(C(=O)O)cc1 [Terephthalic acid] | 134 |  |  |  |  |
| CCCCCCCCCCCC(=O)N(CC)CC [N,N-Diethyldodecanamide] |  | 179.1 | 179.7 | 179.4 |  |
| CCCCC1(COC(=O)CCC(=O)O)C(=O)N(c2ccccc2)N(c2ccccc2)C1=O [Suxibuzone] |  | 200.8 | 201.3 | 204.5 |  |
| CC(C)COC(=O)CC(C(=O)OCC(C)C)S(=O)(=O)O (stereo not drawn) [Sodium 1,4-diisobutyl sulfosuccinate] | 174.4 |  |  |  |  |
| O=C1c2c(O)ccc(Nc3ccc(CCO)cc3)c2C(=O)c2c([N+](=O)[O-])ccc(O)c21 [C.I. Disperse Blue 27] | 201.7 |  |  | 189.9 |  |
| CCCCc1ccc(N)cc1 [4-Butylaniline] |  | 149.8 |  |  |  |
| C=CC(=O)OCC(C)OCC(C)OCC(C)OC(=O)C=C (stereo not drawn) [Tripropylene glycol diacrylate] |  |  |  | 169.9 |  |
| COCCOCCOCCO [2-[2-(2-Methoxyethoxy)ethoxy]ethanol] |  |  |  | 135.6 |  |
| Nc1c(Cl)c(F)nc(OCC(=O)O)c1Cl [Fluroxypyr] | 141.3 |  |  |  |  |
| Cc1cc(C(F)(C(F)(F)F)C(F)(F)F)ccc1NC(=O)c1cccc(I)c1C(=O)NC(C)(C)CS(C)(=O)=O [Flubendiamide] | 222.1 |  |  | 222.6 |  |
| N#CCc1cccc(C(F)(F)F)c1 [[3-(Trifluoromethyl)phenyl]acetonitrile] | 129.1 |  |  |  |  |
| Cc1ccc(OP(=O)(Oc2ccc(C)cc2)Oc2ccc(C)cc2)cc1 [Tris(4-methylphenyl) phosphate] |  | 190.1 | 191 | 200.1 |  |
| COc1nn(CSP(=S)(OC)OC)c(=O)s1 [Methidathion] |  |  |  | 163.4 |  |
| Nc1ccc(N)c(Cl)c1 [2-Chloro-1,4-diaminobenzene sulfate (1:1)] |  | 131.4 |  |  |  |
| Nc1nc2ccccc2[nH]1 [2-Aminobenzimidazole] | 123.5 | 126.8 | 126.2 |  | 123.9 |
| O=C(Nc1ccccc1)Nc1ccnc(Cl)c1 [Forchlorfenuron] | 155.2 | 156.9 | 156.5 |  |  |
| C=C(C)C(=O)OCCCCCCOC(=O)C(=C)C [1,6-Hexanediol dimethacrylate] |  |  |  | 167.3 |  |
| Oc1cc(O)cc(O)c1 [1,3,5-Trihydroxybenzene dihydrate] | 121.6 |  |  |  |  |
| CCCCCCCC(=O)OCC [Ethyl octanoate] | 149.5 |  |  |  |  |
| COC(=O)C1=C(C)NC(C)=C(C(=O)OCCN(C)Cc2ccccc2)C1c1cccc([N+](=O)[O-])c1 (stereo not drawn) [Nicardipine hydrochloride] | 214.2 | 212.6 | 213 | 211.2 | 208.8 |
| CC(c1ccc(O)cc1)(c1ccc(O)cc1)c1ccc(O)cc1 [4,4',4''-Ethane-1,1,1-triyltriphenol] | 184.3 |  |  |  |  |
| O=C1OC2(c3ccc(O)cc3Oc3cc(O)ccc32)c2ccccc21 [Fluorescein sodium] | 176.1 | 173.8 | 174.3 | 189.1 |  |
| CCCCCCCC/C=C/CCCCCCCC(=O)OCC(O)CO (stereo not drawn) [trans-Monoelaidin] |  |  |  | 199 |  |

Source: the supplement of paper PMC12317010
